The source of these data is article PMC6560211, “ApoAI-derived peptide increases glucose tolerance and prevents formation of atherosclerosis in mice” (Diabetologia, 2019).

Assay [1] can be described thus: DMPC MLV lipid clearance (lipid binding). The conditions noted are these: compared with ApoA-I; 30 nmol/l DMPC, 1:100 molar ratio, 25°C, absorbance at 325 nm; n=5. As for the experimental part:
Turbid MLV solutions at 30 nmol/l DMPC were combined with PBS, RG54 or ApoA-I at a 1:100 molar ratio, and lipid binding at 25°C was measured by absorbance at 325 nm at the indicated times. Readings were fitted to one-way decay of non-linear regression.
Quantitative and qualitative lipid assays were applied to determine the lipid-binding properties of RG54. Solubilisation of MLVs made from DMPC phospholipids by RG54 peptide, or by recombinant ApoA-I protein as control, was assayed by light scattering (ESM Fig. 4a).
ESM Figure 4. Lipid clearance and peptide-lipid complex formation activity of RG54 compared with full-length ApoA-I.
DMPC clearance activity of RG54 was compared with ApoA-I. Turbid solutions of DMPC MLVs (30 nmol/l) were prepared in PBS as described in Methods and combined with PBS, RG54, or ApoA-I at a 1:100 molar ratio then lipid binding at 25°C was measured by absorbance at 325 nm at indicated times. (a) Readings were fitted to one-way decay of non-linear regression. (b) The lipid clearance rate is described as t1/2 values calculated from panel a, means ± SEM, n=5, *** p ≤ 0.001. Further, rHDL particles were prepared by incubating the MLVs with proteins or peptides in the molar ratios noted at 24°C for four days. Particle size distribution was analysed by DLS and frequency curves generated for ApoA-I (c) or RG54 (d). […]

For another assay, the system named is DIO C57BL/6NTac mice. Description: GTT in diet-induced obesity (DIO) mice. Type of assay: in vivo, mouse. The note with it: for insulin secretion in GTT: route comparison, n=6. On the procedure:
Male C57BL/6NTac mice (Taconic, Ejby, Denmark) at 8–9 weeks of age were acclimatised for 1 week on a normal chow diet, then changed to a high-fat diet for 2 weeks (diet-induced obesity; DIO), followed by GTT as indicated. Male Lepr^db (db/db) mice on a BKS background (Taconic) at 5 weeks of age were maintained on a normal chow diet and GTTs were performed at 5.5 and 14 weeks of age as indicated. Blood glucose levels were measured in fresh blood (C57: OneTouch Ultra2, Lifescan, Milpitas, CA, USA; db/db: GlucoSmart Swing, MSP bodmann, Bobingen, Germany) and insulin levels were assayed in serum using ELISA (Mercodia) at the times indicated in ESM Fig. 2. See ESM Methods for more details.
The effect of RG54 peptide on glucose disposal was investigated in an established insulin-resistant mouse model. DIO mice were fasted for 9 h followed by a single i.p. dose of RG54 (12 mg/kg), ApoA-I (14 mg/kg), liraglutide (0.1 mg/kg), or an equal volume of NaCl solution. After a further 3 h fasting period, GTTs were performed (Fig. 4a,b).
Fig. 4 Acute treatment with RG54 improves glucose tolerance during GTTs in three models of type 2 diabetes. Male C57Bl/6 mice fed a high-fat diet for 2 weeks (a–d) or db/db mice at 5.5 (e–h) or 14 (i–l) weeks old were fasted overnight, then treated with a single i.p. injection of NaCl (negative control, 200 μl; C57, n=12; db/db 5.5 weeks, n=6; db/db 14 weeks, n=6), liraglutide (0.1 mg/kg; C57, n=11; db/db 5.5 weeks, n=6; db/db 14 weeks, n=6), ApoA-I (14 mg/kg; C57, n=12; db/db 5.5 weeks, n=6; db/db 14 weeks, n=6) or RG54 (12 mg/kg; C57, n=12; db/db 5.5 weeks, n=6; db/db 14 weeks, n=5). After a further 3 h, mice received an i.p. glucose load (40 mg/mouse for C57; 50 mg/mouse for db/db) followed by blood and plasma collection at the indicated times, and blood glucose (a,e,i) and plasma insulin (b,f,j) concentrations were determined. Total AUC was calculated (mmol/l × min for glucose, pmol/l × min for insulin) and then normalised to the average value of the relevant NaCl control group to give relative AUC (% control) for glucose (c,g,k) and insulin (d,h,l). Values are means ± SEM. *p≤0.05, **p≤0.01, ***p≤0.001 vs NaCl control […]
We directly compared the i.p. and s.c. injection routes in DIO mice. DIO mice were fasted for 9 h, followed by a single i.p. or s.c. injection of RG54 (12 mg/kg), ApoA-I (14 mg/kg), or an equal volume of NaCl solution. After a further 3 h fasting and incubation period, GTTs were performed. […] Finally, we assessed the dose response of s.c. RG54 to find treatment concentrations with full or partial effects on glycaemic control as compared with our positive control (Fig. 6).
Male C57Bl/6 mice fed a high-fat diet for 2 weeks were fasted overnight, then treated with a single i.p. or s.c. injection of NaCl (negative control, 200 μl, n=6), ApoA-I (14 mg/kg, n=6) or RG54 (12 mg/kg, n=6). After a further 3 h, all mice received an i.p. glucose load (40 mg/mouse) followed by blood and plasma collection at the indicated times, and blood glucose (a,b) and plasma insulin (d,e) concentrations were determined for all injection routes. Total AUC was calculated (mmol/l × min for glucose, pmol/l × min for insulin) and then normalised to the average value of the relevant NaCl control group to give relative AUC (% control) for glucose (c) and insulin (f). Values are means ± SEM. ***p≤0.001 vs NaCl control […]
Male C57BL/6NTac mice were purchased from Taconic (Ejby, Denmark) at 8-9 weeks of age, acclimatised for one week on normal chow diet, then changed to a High-Fat Diet (HFD; Research Diets D12492, 60% fat content) for 2 weeks, followed by glucose tolerance testing (GTT) with timings as indicated (ESM Figure 2). Male Leprdb mice (db/db) on BKS background purchased from Taconic (BKS.Cg-m+/+Leprdb/BomTac, Ejby, Denmark) at 5 weeks of age were maintained on normal chow diet and GTTs were performed at 5.5 and 14 weeks of age with timings as indicated (ESM Figure 2). For the GTTs, mice fasted overnight […]

No end group written: not given here.

Consider “Ac-AEYHAKATEHLSTLSEKAKPALEDLRQGLLPVLESFKVSFLSALEEYTKKLNTQ [RG54]”, for which the “initial rate of phospholipid binding” value in assay [1] is “significantly lower”. Besides, in the assay on DIO C57BL/6NTac mice (DIO mice, 3 h treatment, i.p.), the fasting glucose levels entry was “significantly lowered”, the fasting insulin levels result was “no concomitant increase” and the “insulin sensitivity as measured by QUICKI” value is given as “no change”. For the same substance, in the assay on DIO C57BL/6NTac mice (i.p. injection, RG54 12 mg/kg, ApoA-I 14 mg/kg), the “insulin secretion in GTT” value is listed as “increased insulin secretion”. Also, in the assay with DIO C57BL/6NTac mice (s.c. injection, 12 mg/kg), the “insulin secretion in GTT” value was “increased glucose clearance and insulin secretion”. The “levels of serum insulin in GTT” value in the assay on DIO C57BL/6NTac mice (single i.p. dose 12 mg/kg 3 h before GTT, vs NaCl, n=12) was “significantly increased”.
